# Data: patent US20090149482A1, “STEREOCHEMICALLY DEFINED DIPEPTIDE ESTERS OF ANTIVIRAL AGENTS FOR ENHANCED OCULAR TREATMENT” (priority 2001, published 2009)
# Read-outs that look alike come from different tables or passages of the source.
# Experiments:
# in vitro = details: human, Caco-2, pH 7.4
# hPEPT1 = target: T1, hPEPT1 (Homo sapiens, UniProt P46059); assay: [3H] Glycylsarcosine uptake and its inhibition in Caco-2 cells (affinity towards peptide transporter); type: cell-based; details: for Vmax of Gly-Sar uptake in presence of the drug: Gly-Sar with drug (10 mM); for Ki: read-out: Ki
# T1 construct: endogenous in cells; host or cells: Caco-2 (human colon carcinoma, ATCC)
# T1 sequence (P46059 1-708): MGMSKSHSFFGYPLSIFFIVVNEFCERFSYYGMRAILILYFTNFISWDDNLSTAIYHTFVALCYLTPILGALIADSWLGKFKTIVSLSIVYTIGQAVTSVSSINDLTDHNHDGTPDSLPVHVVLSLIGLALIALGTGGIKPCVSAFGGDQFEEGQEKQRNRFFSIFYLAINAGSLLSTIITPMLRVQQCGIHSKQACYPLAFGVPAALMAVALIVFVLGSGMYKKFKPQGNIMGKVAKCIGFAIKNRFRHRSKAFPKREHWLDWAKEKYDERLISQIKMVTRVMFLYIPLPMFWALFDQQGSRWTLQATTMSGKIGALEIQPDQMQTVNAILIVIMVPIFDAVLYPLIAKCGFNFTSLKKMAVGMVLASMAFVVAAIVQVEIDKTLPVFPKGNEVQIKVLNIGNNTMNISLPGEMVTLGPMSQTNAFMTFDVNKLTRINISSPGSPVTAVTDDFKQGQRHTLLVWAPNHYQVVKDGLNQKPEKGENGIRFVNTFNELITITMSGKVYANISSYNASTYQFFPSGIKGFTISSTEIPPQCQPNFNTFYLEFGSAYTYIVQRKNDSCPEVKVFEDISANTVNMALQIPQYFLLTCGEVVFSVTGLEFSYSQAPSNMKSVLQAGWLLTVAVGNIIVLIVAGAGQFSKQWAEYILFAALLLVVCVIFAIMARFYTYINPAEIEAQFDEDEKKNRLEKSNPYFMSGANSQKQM
# Source text: Materials: [^3H] Glycylsarcosine (Gly-Sar; 4 Ci/mmol) was purchased from Moravek Biochemicals (Brea, Calif.) and [^14C] Mannitol (50 mCi/mmol) was supplied by Amersham (Piscataway, N.J.). Human colon carcinoma derived Caco-2 cells were obtained from American Type Culture Collection (ATCC, Rockville, Md.). The growth medium, Dulbecco's modified Eagle Medium was obtained from Life Technologies (Grand Island, N.Y.). […] Fetal bovine serum (FBS) was purchased from JRH Biosciences (Lenexa, Kans.). Culture flasks (75 cm^2 growth area), polyester Transwells® (pore size 0.4 Cm with diameter 6.5 mm) and polyester membranes (pore size 0.4 Cm) were procured from Costar (Bedford, Mass.). The buffer components and solvents were obtained from Fisher Scientific (St. Louis, Mo.). All the di-peptide esters of acyclovir were custom synthesized in our laboratory. […] Cell Culture: All cultures were maintained in humidified incubator at 37° C. with a 5% carbon dioxide in air atmosphere. Caco-2 cells were obtained at passage 25 from American Type Culture Collection (ATCC) and grown in plastic tissue culture flasks. […] When 80% confluent, these cells were removed by treating them with Trypsin/EDTA and plated at a density of 100,000 cells/cm^2 on collagen coated plastic dishes containing clear polyester membranes (0.636 cm^2, […]) or 12-well tissue culture treated plastic plates. Cells were then grown in medium containing 10% FBS (heat-inactivated). […] [^14C] […] Metabolism studies in Cell Suspensions: Confluent Caco-2 cells, grown in tissue culture flasks were isolated with the aid of mechanical scraper and washed thrice with DPBS. […] One-hundred micro-liters of samples were withdrawn at predetermined time intervals and the sample was purified by precipitating the cellular proteins into the organic solvent mixture and stored at −80° C. until further analysis. The protein content of the cell suspension was determined by the method of Bradford using bovine serum albumin as the standard (BioRad protein estimation kit, Hercules, Calif.). […] Transport studies: Transport experiments were done using Side-Bi-Side™ diffusion cells (type VSC-1, Crown Glass Company Inc.) and Transwell® inserts. Prior to the experiment with Gly-Sar, Caco-2 cell monolayers grown on the clear polyester membranes and Transwell® inserts were washed with DPBS (pH 6.0) and incubated at 37° C. Freshly prepared drug solutions in DPBS (pH 6.0) was placed in the donor chamber and the receiver chamber was filled with DPBS. The volumes of donor and receptor chambers were 3 ml each for Side-Bi-Side™ diffusion cells and 0.5 ml and 1.5 ml respectively for Transwell® inserts. […] The samples were stored at −80° C. until analyzed HPLC. All experiments were performed at 37° C. […] The concentration dependent uptake of glycylsarcosine was studied using [^3H] […] For Dixon plots and Dose Response studies [^3H] […] Following incubation, the cell monolayers were washed three times with ice-cold HEPES buffer to terminate the uptake experiment. After the washings cells were lysed overnight using 1 ml 0.1% (w/v) Triton X-100 in 0.3 N NaOH at room temperature. Aliquots (500 μl) from each well were then transferred to scintillation vials containing 5 ml scintillation cocktail (Fisher Scientific, Fairlawn, N.J.). […] The amount of protein in the cell lysate was measured by the BioRad protein estimation kit using bovine serum albumin as standard (BioRad Protein estimation Kit, Hercules, Calif.). Analytical Procedures: All samples were assayed using HPLC. […] The column used was a C18 Luna column 4.6×250 mm (Phenomenex). The mobile phase consisted of a mixture of buffer and an organic modifier. The percentage of organic phase was varied in order to elute compounds of interest.
# [1] = test system: rabbit corneal cell line (SIRC); details: for percent survival: SIRC cells
# HSV-1 strain McKrae = assay: HSV-1 epithelial keratitis rabbit model, topical treatment, SLE scores; type: in vivo
# Source text: The rabbit eye is an excellent model to study acute HSV-1 epithelial keratitis. Also, spontaneous and induced ocular HSV-1 shedding and corneal epithelial disease in rabbits has been used as a model of human ocular HSV-1 reactivation and recurrence. HSV-1 strain McKrae was used in studies for epithelial keratitis. HSV-1 strain RE was used for studies of HSV stromal keratitis.
# i) Epithelial Keratitis: A group of ten rabbits was used to study each compound. Both eyes of all rabbits were used. An aqueous vehicle (like a placebo) and one positive control were obtained using 1% TFT (Viroptic®). Each compound at 1% concentration (TFT=33 mM, Gly-Gly-ACV=26.6 mM, Val-Val-ACV=18.6 mM) were applied (50 μl) topically 5 times per day every two hours starting at 8:00 a.m. and ending at 4:00 p.m. The treatment began on the 3rd post-inoculation day and continued for 5 consecutive days. Slit-lamp examinations were performed once every day for 8 days and thereafter once every other day until lesions resolved.
# [2] = for first order hydrolytic rate constant k: 37° C.
# [3] = rats, portal vein
# HSV-1 = assay: In vitro antiviral screening, CPE inhibition in HFF cells; type: cell-based, herpes simplex virus 1; details: read-out: EC50 (concentration required to inhibit viral cytopathogenicity by 50%)
# HCMV = assay: as above; type: cell-based, human cytomegalovirus
# [4] = test system: oligopeptide transporter on the rabbit cornea
# [5] = test system: human fibroblast foreskin cells (HFF)
# HSV-2 = assay: In vitro antiviral screening, CPE inhibition in HFF cells; type: cell-based, herpes simplex virus 2
# VZV = assay: as above; type: cell-based, varicella zoster virus
# [6] = rats, jugular vein
# EBV = assay: In vitro antiviral screening, VCA Elisa; type: cell-based, epstein-barr virus
# [7] = Plasma pharmacokinetics of stereoisomeric prodrugs following oral administration in rats
# [8] = Caco-2 cell suspension at pH 7.4, * = no intact drug detected during the experiment
# [9] = oral 20.0 mg/kg equivalent, total concentration in terms of ACV
# [10] = oral, analyte amino acid intermediate
# [11] = plasma analyte following oral administration of LDACV in rats
compound,measurement,setting,value
Nc1nc2c(ncn2COCCOC(=O)CNC(=O)C(N)Cc2ccc(O)cc2)c(=O)[nH]1 (stereo not drawn) [Tyr-Gly-ACV],half-life at 0.2 mM,in vitro,13.3 ± 1.5 min
same,10^2 × kobs,Caco-2 cell suspension; [8],5.22 ± 0.58 min^−1mg^−1 protein
same,Vmax of Gly-Sar uptake in presence of the drug,hPEPT1; Lineweaver-Burk,0.087 ± 0.09 µmol/min/mg
same,Ki,hPEPT1; Lineweaver-Burk,8230 ± 430 µM
same,Ki,hPEPT1; Michaelis-Menten,7990 ± 540 µM
NCC(=O)NCC(=O)OCCOCn1cnc2c(=O)[nH]c(N)nc21 [Gly-Gly-ACV],intact drug after incubation with the cell suspension,Caco-2 cell suspension; Caco-2 cell suspension,no intact drug detected within one minute
same,percent survival,[1]; 0.25 mM,104.6%
same,percent survival,[1]; 0.5 mM,94.7%
same,percent survival,[1]; 1 mM,90.1%
same,percent survival,[1]; 2 mM,86.2%
same,percent survival,[1]; 5 mM,63.8%
same,percent survival,[1]; 10 mM,49.32%
same,efficacy relative to TFT (SLE scores),HSV-1 strain McKrae,more effective than TFT
same,Concentration required to achieve an SLE Score of 0.3,"HSV-1 strain McKrae; 14 days post-inoculation, 1% topical 5 times per day",26.6 mM
same,stability as an ophthalmic solution,"[2]; pH 5.6, concluded from rate constants",stable for two years
same,first order hydrolytic rate constant k,[2]; pH 7.4,6.75 k × 10^3 min^−1
same,first order hydrolytic rate constant k,[2]; pH 9.0,14.85 k × 10^3 min^−1
"CC(C)C(NC(=O)CN)C(=O)OCCOCn1cnc2c(=O)[nH]c(N)nc21 (stereo not drawn) [Gly-Val-ACV, Glycine-Valine-Acyclovir]",10^2 × kobs,"Caco-2 cell suspension; Caco-2, pH 7.4",0.637 ± 0.01 min^−1mg^−1 protein
same,t1/2,"Caco-2 cell suspension; human, Caco-2, pH 7.4",108.1 ± 2.4 min
same,AUC(0-t)(TC),[3]; [9],416.1 ± 140.9 µg·min/mL
same,AUCinf(TC),[3]; [9],598.7 ± 164.1 µg·min/mL
same,Clast(TC),[3]; oral,810 ± 120 ng/mL
same,Tmax(TC),[3]; oral,21.4 ± 5.77 min
same,AUC(0-t)(ACV),"[3]; oral, analyte acyclovir",347.8 ± 108.2 µg·min/mL
same,Cl(Acv),"[3]; oral, analyte acyclovir",12.5 ± 5.5 mL/min
same,Cmax(ACV),"[3]; oral, analyte acyclovir",4060 ± 1440 ng/mL
same,MRT(ACV),"[3]; oral, analyte acyclovir",64.1 ± 5.35 min
same,AUC(0-t)(AA),[3]; [10],143.6 ± 51.4 µg·min/mL
same,Cl(AA),[3]; [10],31.9 ± 5.3 ml min^−1I
same,Cmax(AA),[3]; [10],990 ± 540 ng/mL
same,Cmax(TC),"[3]; oral, total concentration in terms of ACV",4070 ± 1030 ng/mL
same,% viable cells,[1],81.1±6.7%
same,EC50,HSV-1,12.6 µM
same,Vmax of Gly-Sar uptake in presence of the drug,hPEPT1; Lineweaver-Burk,0.095 ± 0.07 µmol/min/mg
same,Ki,hPEPT1; Lineweaver-Burk,1820 ± 340 µM
same,Ki,hPEPT1; Michaelis-Menten,1420 ± 240 µM
same,EC50,HCMV,59.5 µM
same,Papp (% Control) of [3H] Val-ACV,[4],23.7 (±6.6) % Control
same,Vmax of concentration dependent transport,Caco-2 monolayers,0.014±0.00058 moles cm^−2 min^−1
same,inhibition in transport in presence of Gly-Sar,Caco-2 monolayers,63 % inhibition
same,Papp,"Caco-2 monolayers; Caco-2, pH 6",2.80±0.59 ×10^−6 cm/sec
same,Papp,"Caco-2 monolayers; Caco-2, pH 7.4",5.23±0.57 ×10^−6 cm/sec
same,Km,Caco-2 monolayers; read-out: Km of concentration dependent transport,3.16 ± 0.31 mM
same,CC50,[5],> 160 µM
same,EC50,HSV-2,22.7 µM
same,EC50,VZV,0.38 µM
same,AUC(0-t)(CC),[6]; oral 20.0 mg/kg equivalent,633.8 ± 115.5 µg·min/mL
same,AUCinf(CC),[6]; oral 20.0 mg/kg equivalent,900.7 ± 74.8 µg·min/mL
same,Clast(CC),[6]; oral,1100 ± 210 ng/mL
same,Cmax(CC),[6]; oral,7200 ± 3300 ng/mL
same,Tmax(CC),[6]; oral,22.2 ± 8.3 min
same,AUC(0-t)(ACV),"[6]; oral, analyte acyclovir",571.68 ± 99.22 µg·min/mL
same,Cl(ACV),"[6]; oral, analyte acyclovir",13.3 ± 3.5 mL/min
same,Cmax(ACV),"[6]; oral, analyte acyclovir",6900 ± 1500 ng/mL
same,MRT(ACV),"[6]; oral, analyte acyclovir",79.61 ± 10.64 min
same,AUC(0-t)(AA),[6]; [10],133.1 ± 48.2 µg·min/mL
same,Cl(AA),[6]; [10],26.8 ± 4.5 mL/min
same,EC50,EBV,5.61 µM
CC(C)[C@@H](N)C(=O)OCCOCn1cnc2c(=O)[nH]c(N)nc21 [DACV],AUC,[7]; [11],261.89 ± 23.64 µM·min
same,Cmax,[7]; [11],8.68 ± 1.24 µM
same,Tmax,[7]; [11],15 min
"CC(C)C(N)C(=O)NC(C(=O)OCCOCn1cnc2c(=O)[nH]c(N)nc21)C(C)C [DLACV, D-valine-L-valine-acyclovir]",concentrations in the systemic circulation,[7]; oral administration in rats,Very little concentrations were observed
NCC(=O)NC(Cc1ccc(O)cc1)C(=O)OCCOCn1cnc2c(=O)[nH]c(N)nc21 (stereo not drawn) [Gly-Tyr-ACV],half-life at 0.2 mM,in vitro,21.5 ± 3.2 min
same,10^2 × kobs,Caco-2 cell suspension; [8],3.21 ± 0.46 min^−1mg^−1 protein
same,Vmax of Gly-Sar uptake in presence of the drug,hPEPT1; Lineweaver-Burk,0.094 ± 0.11 µmol/min/mg
same,Ki,hPEPT1; Lineweaver-Burk,3940 ± 610 µM
same,Ki,hPEPT1; Michaelis-Menten,3560 ± 1980 µM
